In patent US7666868B2, “N-sulphonylpyrroles and their use as histone deacetylase inhibitors” (4SC AG, priority 2005, dated 2010):

How the values were obtained:
[1] = tested on: HeLa cervical carcinoma cell line; experiment: Cellular cytotoxicity assay (Alamar Blue / Resazurin); type: cell-based; details: Homo sapiens; HeLa cells, 48 hours incubation; read-out: IC50 (anti-proliferative/cytotoxic potency)
Method: The anti-proliferative activity of the histone deacetylase inhibitory compounds as described herein, is evaluated with the HeLa cervical carcinoma cell line (ATCC CCL2) using the Alamar Blue (Resazurin) cell viability assay (O'Brien et al. Eur J Biochem 267, 5421-5426, 2000). Resazurin is reduced to the fluorescent resorufin by cellular dehydrogenase activity, correlating with viable, proliferating cells. Test compounds are dissolved as 10 mM solutions in dimethylsulfoxide (DMSO) and subsequently diluted in semi-logarithmic steps. HeLa cells are seeded into 96 well flat bottom plates at a density of 3000 cells per well in a volume of 200 μl per well. 24 hours after seeding 1 μl each of the compound dilutions are added into each well of the 96 Well plate. Each compound dilution is tested as quadruplicates. Wells containing untreated control cells are filled with 200 μl DMEM medium containing 0.5% v:v DMSO. The cells are then incubated with the substances for 48 hours at 37° C. in a humidified atmosphere containing 5% carbon dioxide. To determine the viability of the cells, 20 μl of an Resazurin solution (Sigma; 90 mg/l) are added. After 4 hours incubation at 37° C. the fluorescence is measured at an extinction of 544 nm and an emission of 590 nm. For the calculation of the cell viability the emission value from untreated cells is set as 100% viability and the emission rates of treated cells are set in relation to the values of untreated cells. Viabilites are expressed as % values. The corresponding IC50 values of the compounds for cytotoxic activity are determined from the concentration-effect curves by means of non-linear regression.

[2] = tested on: histone H3 acetylation (lysine 9+14) in HeLa cervical carcinoma cells; experiment: Cellular histone H3 acetylation assay; type: cell-based; details: Homo sapiens, 24 h incubation with compound, read-out: EC50 (histone H3 acetylating cellular potency)
Description: To assess the cellular efficacy of an histone deactylase inhibitor in vitro, an assay is set up in black clear-bottom 96-well plates and optimized for use on the Cellomics “ArrayScan II” platform for a quantitative calculation of histone acetylation. The protocol uses a polyclonal rabbit antibody, specifically binding to acetylated lysine 9+14 of human histone H3 on fixed cells with an Alexa Fluor 488 labeled goat ant rabbit-IgG used for counterstaining (modified from Braunger et al. MCR annual conference 2003, Abstract 4556).
5×10^3 HeLa cervical carcinoma cells/well (ATCC CCL-2) in 200 μl Dulbecco's modified Eagle's medium (DMEM) containing 10% fetal calf serum are seeded at day 1 in Packard view plates and incubated for 24 h under standard cell culture conditions. On day 2, 2 μl test compound (100× final concentration) is added and incubation continued for further 24 h. On day 3, the culture medium is discarded and attached cells fixed for 15 min at room temperature by addition of 100 μl fixation buffer (3.7% v:v formaldehyde in phosphate buffered saline/PBS). After discarding the fixation buffer and one wash with PBS, cells are permeabilized at room temperature by addition of 100 μl/well permeabilization buffer (30.8 mM NaCl, 0.54 mM Na2HPO4, 0.31 mM KH2PO4, 5% v:v Triton X-100) for 15 min at room temperature. After discarding the permeabilization buffer and washing twice with 100 μl/well blocking solution (PBS with 0.05% v:v Tween 20 and 5% w:v milk powder) at room temperature, the 1st antibody (anti-K9+14 histone H3 antibody, Calbiochem No. 382158) in blocking solution (50 μl/well) is added. After incubation for 1 h at 37° C., the wells are washed twice at room temperature with 100 μl/well blocking solution before addition of the 2nd antibody (goat-anti-rabbit Alexa Fluor 488; MoBiTec No. A-11008) in blocking solution (50 μl/well). After further incubation for 1 h at 37° C., wells are washed twice with 100 μl/well blocking solution room temperature. Finally, 100 d/well PBS are added and image analysis performed on the Cellomics “ArrayScan II” platform. For calculation of EC50 values, the nuclear fluorescence in cells treated with and without a reference HDAC inhibitor (eg NVP-LBH-589) are taken as a positive and negative control. For EC50 determination, the percentage of positive cells is determined and EC50 calculation done from concentration-effect curves by means of non-linear regression.

SMILES	IC50 [1] [µM]	EC50 [2] [µM]	melting point [°C]
Nc1ccc(-c2ccc(S(=O)(=O)n3ccc(C=CC(=O)NO)c3)cc2)cn1 [Compound 4, (E)-3-∴1-[4-(6-Amino-pyridin-3-yl)-benzenesulfonyl]-1H-pyrrol-3-yl)-N-hydroxy-acrylamide]	0.078 to 2.3	0.28 to 5.3	
O=C(/C=C/c1ccn(S(=O)(=O)c2cc(-c3ccccc3)ccc2OCCCN2CCOCC2)c1)NO [Compound 38, (E)-N-Hydroxy-3-{1-[4-(3-morpholin-4-yl-propoxy)-biphenyl-3-sulfonyl]-1H-pyrrol-3-yl}-acrylamide]		0.027 to 4.4	167 to 172
COc1ccc(-c2ccc(S(=O)(=O)n3ccc(/C=C/C(=O)Nc4ccccc4N)c3)cc2)cn1 [Compound 5, (E)-N-(2-Amino-phenyl)-3-{1-[4-(6-methoxy-pyridin-3-yl)-benzenesulfonyl]-1H-pyrrol-3-yl}-acrylamide]	0.078 to 2.3	0.28 to 5.3	
NCC1(S(=O)(=O)n2ccc(/C=C/C(=O)Nc3ccccc3N)c2)C=CC(c2ccccc2)=CC1 (stereo not shown) [Compound 93, (E)-3-[1-(4-Aminomethyl-biphenyl-4-sulfonyl)-1H-pyrrol-3-yl]-N-(2-amino-phenyl)-acrylamide]			278 to 280
Cn1cc(-c2ccc(S(=O)(=O)n3ccc(/C=C/C(=O)NO)c3)cc2)cn1 [Compound 2, (E)-N-Hydroxy-3-{1-[4-(1-methyl-1H-pyrazol-4-yl)-benzenesulfonyl]-1H-pyrrol-3-yl}-acrylamide]	0.078 to 2.3	0.28 to 5.3	
O=C(/C=C/c1ccn(S(=O)(=O)c2cc(-c3ccccc3)ccc2CNC2CC2)c1)NO [Compound 63, (E)-3-[1-(4-Cyclopropylaminomethyl-biphenyl-3-sulfonyl)-1H-pyrrol-3-yl]-N-hydroxy-acrylamide]		0.027 to 4.4	118 to 119
Nc1ccc(-c2ccc(S(=O)(=O)n3ccc(/C=C/C(=O)Nc4ccccc4N)c3)cc2)cn1 [Compound 6, (E)-N-(2-Amino-phenyl)-3-{1-[4-(6-amino-pyridin-3-yl)-benzenesulfonyl]-1H-pyrrol-3-yl}-acrylamide]	0.078 to 2.3	0.28 to 5.3	
O=C(/C=C/c1ccn(S(=O)(=O)c2cc(-c3ccccc3)ccc2CCN2CCOCC2)c1)NO [Compound 16, (E)-N-Hydroxy-3-{1-[4-(2-morpholin-4-yl-ethyl)-biphenyl-3-sulfonyl]-1H-pyrrol-3-yl}-acrylamide]		0.027 to 4.4	
O=C(/C=C/c1ccn(S(=O)(=O)c2cccc(-c3ccc(OCCN4CCOCC4)cc3)c2)c1)NO [Compound 34, (E)-N-Hydroxy-3-{1-[4′-(2-morpholin-4-yl-ethoxy)-biphenyl-3-sulfonyl]-1H-pyrrol-3-yl}-acrylamide]		0.027 to 4.4	
Nc1ccccc1NC(=O)/C=C/c1ccn(S(=O)(=O)C2(CN3CCOCC3)C=CC(c3ccccc3)=CC2)c1 (stereo not shown) [Compound 107, (E)-N-(2-Amino-phenyl)-3-[1-(4-morpholin-4-ylmethyl-biphenyl-4-sulfonyl)-1H-pyrrol-3-yl]-acrylamide]			196 to 201
COc1ccc(-c2ccc(S(=O)(=O)n3ccc(/C=C/C(=O)NO)c3)cc2)cn1 [Compound 3, (E)-N-Hydroxy-3-{1-[4-(6-methoxy-pyridin-3-yl)-benzenesulfonyl]-1H-pyrrol-3-yl}-acrylamide]	0.078 to 2.3	0.28 to 5.3	
CN1CCN(c2cc(-c3ccc(S(=O)(=O)n4ccc(/C=C/C(=O)NO)c4)cc3)ccn2)CC1 [Compound 28, (E)-N-Hydroxy-3-(1-{4-[2-(4-methyl-piperazin-1-yl)-pyridin-4-yl]-benzenesulfonyl}-1H-pyrrol-3-yl)-acrylamide]		0.027 to 4.4	
Cn1cc(-c2cccc(S(=O)(=O)n3ccc(/C=C/C(=O)Nc4ccccc4N)c3)c2)cn1 [Compound 15, (E)-N-(2-Amino-phenyl)-3-{1-[3-(1-methyl-1H-pyrazol-4-yl)-benzenesulfonyl]-1H-pyrrol-3-yl}-acrylamide]			193 to 197
O=C(/C=C/c1ccn(S(=O)(=O)c2ccc(-c3ccc(CN4CCOCC4)cc3)s2)c1)NO [Compound 54, (E)-N-Hydroxy-3-{1-[5-(4-morpholin-4-ylmethyl-phenyl)-thiophene-2-sulfonyl]-1H-pyrrol-3-yl}-acrylamide]		0.027 to 4.4	
CN(C)Cc1ccc(-c2cccc(S(=O)(=O)n3ccc(/C=C/C(=O)NO)c3)c2)cc1 [Compound 37, (E)-3-[1-(4′-Dimethylaminomethyl-biphenyl-3-sulfonyl)-1H-pyrrol-3-yl]-N-hydroxy-acrylamide]		0.027 to 4.4	
CS(=O)(=O)Nc1ccc(-c2ccc(S(=O)(=O)n3ccc(/C=C/C(=O)NO)c3)cc2)cc1 [Compound 23, (E)-N-Hydroxy-3-[1-(4′-methanesulfonylamino-biphenyl-4-sulfonyl)-1H-pyrrol-3-yl]-acrylamide]		0.027 to 4.4	
Cc1ccc(S(=O)(=O)NC2(S(=O)(=O)n3ccc(/C=C/C(=O)NO)c3)C=CC(c3ccccc3)=CC2)cc1 (stereo not shown) [Compound 29, (E)-N-Hydroxy-3-{1-[4-(toluene-4-sulfonylamino)-biphenyl-4-sulfonyl]-1H-pyrrol-3-yl}-acrylamide]			119 to 126
CN(C)CC1(S(=O)(=O)n2ccc(/C=C/C(=O)Nc3ccccc3N)c2)C=CC(c2ccccc2)=CC1 (stereo not shown) [Compound 47, (E)-N-(2-Amino-phenyl)-3-[1-(4-dimethylaminomethyl-biphenyl-4-sulfonyl)-1H-pyrrol-3-yl]-acrylamide]			211 to 216
Cn1cc(-c2cccc(S(=O)(=O)n3ccc(/C=C/C(=O)NO)c3)c2)cn1 [Compound 12, (E)-N-Hydroxy-3-(1-[3-(1-methyl-1H-pyrazol-4-yl)-benzenesulfonyl]-1H-pyrrol-3-yl)-acrylamide]		0.027 to 4.4	
CN(C)CCNC(=O)c1ccc(-c2cccc(S(=O)(=O)n3ccc(C=CC(=O)NO)c3)c2)cc1 [Compound 30, 3′-3-((E)-2-Hydroxycarbamoyl-vinyl)-pyrrole-1 sulfonyl]-biphenyl-4-carboxylic acid (2-dimethylamino-ethyl)-amide]		0.027 to 4.4	
CS(=O)(=O)Nc1ccccc1-c1ccc(S(=O)(=O)n2ccc(/C=C/C(=O)NO)c2)cc1 [Compound 21, (E)-N-Hydroxy-3-[1-(2′-methanesulfonylamino-biphenyl-4-sulfonyl)-1H-pyrrol-3-yl]-acrylamide]		0.027 to 4.4	
CN1CCN(Cc2ccc(-c3cccc(S(=O)(=O)n4ccc(/C=C/C(=O)NO)c4)c3)cc2)CC1 [Compound 62, (E)-N-Hydroxy-3-{1-[4′-(4-methyl-piperazin-1-ylmethyl)-biphenyl-3-sulfonyl]-1H-pyrrol-3-yl}-acrylamide]		0.027 to 4.4	
Cn1cc(-c2ccc(S(=O)(=O)n3ccc(/C=C/C(=O)Nc4ccccc4N)c3)cc2)cn1 [Compound 7, (E)-N-(2-Amino-phenyl)-3-{1-[4-(1-methyl-1H-pyrazol-4-yl)-benzenesulfonyl]-1H-pyrrol-3-yl}-acrylamide]	0.078 to 2.3	0.28 to 5.3	
CN(C)CCNC(=O)c1ccc(-c2ccc(S(=O)(=O)n3ccc(C=CC(=O)NO)c3)cc2)cc1 [Compound 24, 4′-[3-(E)-2-Hydroxycarbamoyl-vinyl)-pyrrole-1-sulfonyl]-biphenyl-4-carboxylic acid (2-dimethylamino-othyl)-amide]		0.027 to 4.4	
Cn1ccc2cc(-c3ccc(S(=O)(=O)n4ccc(/C=C/C(=O)NO)c4)cc3)ccc21 [Compound 1, (E)-N-Hydroxy-3-{1-[4-(1-methyl-1H-indol-5-yl)-benzenesulfonyl]-1H-pyrrol-3-yl}-acrylamide]	0.078 to 2.3	0.28 to 5.3	
